# Experimental data taken from patent US12221649B2 (priority 2018, dated 2025).
# Key:
# carboxypeptidase A (CPA) = target: T1, carboxypeptidase A (CPA) (Homo sapiens, UniProt P15085); assay: Enzyme assay of Compound A and CPA (fluorescence increase); format: biochemical; conditions: 37° C.
# T1 sequence (P15085 111-419): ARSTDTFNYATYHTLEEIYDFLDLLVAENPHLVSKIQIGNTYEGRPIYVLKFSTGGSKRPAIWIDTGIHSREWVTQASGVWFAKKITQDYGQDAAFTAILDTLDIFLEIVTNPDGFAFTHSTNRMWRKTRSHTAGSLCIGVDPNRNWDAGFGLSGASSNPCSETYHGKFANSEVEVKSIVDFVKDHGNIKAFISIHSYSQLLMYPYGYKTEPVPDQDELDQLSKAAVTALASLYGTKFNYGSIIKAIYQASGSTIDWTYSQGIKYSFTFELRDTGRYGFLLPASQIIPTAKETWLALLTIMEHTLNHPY
# Description: An enzyme assay using the synthesized Compounds A, B was performed.
# (§1) FIG. 2(a) illustrates a reaction scheme of Compound A and CPA. In FIG. 2(b), 10 μM Compound A in PBS (-) was incubated at 37° C. with 5 ng CPA activated by 1.5 μg trypsin in the presence or absence of 100 μM inhibitor ((S)-benzylsuccinic acid) containing 0.1% DMSO as a co-solvent. Ex/Em=355/460 nm. n=4. (In FIG. 2, Try represents trypsin, and SBSA represents (S)-benzylsuccinic acid.)
# [1] = format: physicochemical; conditions: for fluorescence change in the absence of enzyme (non-enzymatic degradation): 10 μM probe in PBS(-), pH 7.4, 37° C., no enzyme
# Description: (§2) An enzyme assay using the synthesized Compounds A, B was performed. As a result, the fluorescence of Compounds A and B was increased by incubation with carboxypeptidase A (CPA) and carboxypeptidase B (CPB) which were the respective target enzymes, and the increase in fluorescence was suppressed by addition of (S)-benzylsuccinic acid and MGTA which were the respective inhibitors.
# (§3) FIG. 4(a) illustrates a reaction scheme of Compound C and CPB. In FIG. 4(b), 10 μM Compound C in PBS (-) was incubated at 37° C. in the presence or absence of 5 ng CPB containing 0.1% DMSO as a co-solvent. Ex/Em=355/460 nm. n=4. […] 10 μM Compound A or Compound C in PBS (-) was incubated at 37° C. in the absence of CPB. Ex/Em=355/460 nm. n=4.
# (§4) Next, reactivity with CPB and the stability in a buffer solution having a pH of 7.4 were examined. As a result, it became clear that while HMRef-tSoul-AR caused a fluorescence increase of 3320 times by reaction with CPB, HMRef-tSoul-AR was stable for at least about 1 hour in the absence of enzyme. The results are illustrated in FIG. 5.
# (§5) FIG. 5(a) illustrates a reaction scheme of HMRef-tSoul-AR and CPB. FIG. 5(b) illustrates the fluorescence increase of 1 μM HMRef-tSoul-AR in PBS (-) incubated with 30 μg CPB containing 0.1% DMSO as a co-solvent. Incubation was performed at 25° C. The excitation wavelength was 498 nm. FIG. 5(c) illustrates an absorption change of 1 μM HMRef-tSoul-AR in PBS (-) at 25° C. for 50 minutes.
# trypsin = target: T2, trypsin (Bos taurus, UniProt P00760); assay: Compound A with only trypsin added (control condition of the CPA assay); format: biochemical; conditions: 10 μM Compound A, no CPA
# T2 construct: gene PRSS1
# T2 sequence (P00760 24-246): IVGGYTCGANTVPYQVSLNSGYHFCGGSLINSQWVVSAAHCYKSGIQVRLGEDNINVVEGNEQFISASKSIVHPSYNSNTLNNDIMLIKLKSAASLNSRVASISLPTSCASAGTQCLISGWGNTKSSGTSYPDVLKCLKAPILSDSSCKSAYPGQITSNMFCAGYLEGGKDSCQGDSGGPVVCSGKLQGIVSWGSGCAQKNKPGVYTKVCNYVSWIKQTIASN
# Description: as §2, §1
# carboxypeptidase B (CPB) = target: T3, carboxypeptidase B (CPB) (Homo sapiens, UniProt P15086); format: biochemical; conditions: for fluorescence change on incubation with CPB: 10 μM probe in PBS(-), Ex/Em=355/460 nm
# T3 sequence (P15086 111-417): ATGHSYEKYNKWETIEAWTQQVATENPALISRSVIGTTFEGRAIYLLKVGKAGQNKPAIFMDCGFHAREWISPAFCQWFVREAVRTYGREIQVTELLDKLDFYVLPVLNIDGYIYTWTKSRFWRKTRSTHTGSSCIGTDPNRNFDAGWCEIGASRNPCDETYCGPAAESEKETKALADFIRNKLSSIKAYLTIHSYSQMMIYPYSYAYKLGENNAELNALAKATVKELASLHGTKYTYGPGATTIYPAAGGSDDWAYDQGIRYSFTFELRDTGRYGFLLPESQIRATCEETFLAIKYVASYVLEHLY
# Description: as §2
# FIG. 3(a) illustrates a reaction scheme of Compound B and CPB. In FIG. 3(b), 10 μM Compound B in PBS (-) was incubated at 37° C. with 5 ng CPB in the presence or absence of 100 μM inhibitor (MGTA) containing 0.1% DMSO as a co-solvent. Ex/Em=355/460 nm. n=4.
# An enzyme assay using the synthesized Compound C and CPB was performed.
# as §3, §4, §5
# PSMA = PSMA (Homo sapiens, UniProt Q04609); assay: Enzyme assay of probes and PSMA (fluorescence increase); format: biochemical; conditions: 10 μM probe in TBS buffer, 37° C., 22 ng PSMA, Ex/Em=355/460 nm
# Description: An enzyme assay was performed using the synthesized 4MU-tSoul-AE and PSMA.
# An enzyme assay was performed using the synthesized 4MU-tSoul-GE and PSMA.
# Here, FIG. 9(a) illustrates a reaction scheme of 4MU-tSoul-GE and PSMA. […] Ex/Em=355/460 nm. n=3.
# CPB = target: T4, CPB (Homo sapiens, UniProt P15086); assay: Enzyme reaction rate parameters with CPB (fluorescence method, plate reader); format: biochemical; conditions: CPB 5 ng, 37° C., PBS pH 7.4, 20 μL, apparent
# T4 sequence (P15086 111-417): T3 sequence (P15086 111-417)
# Description: (§6) In addition, an enzyme reaction rate parameter was calculated.
# (§7) All experiments were performed at 37° C. in a total volume of 20 μL of phosphate buffered saline (pH 7.4) containing DMSO as a co-solvent. 5 ng of CPB or CPM was added. An enzyme reaction initial rate was calculated from a fluorescence change at 535 nm using a plate reader (n=3). The excitation wavelength was 485 nm.
# carboxypeptidase M (CPM) = target: T5, carboxypeptidase M (CPM) (Homo sapiens, UniProt P14384); assay: Enzyme reaction rate parameters with CPM (fluorescence method, plate reader); format: biochemical
# T5 sequence (P14384 18-423): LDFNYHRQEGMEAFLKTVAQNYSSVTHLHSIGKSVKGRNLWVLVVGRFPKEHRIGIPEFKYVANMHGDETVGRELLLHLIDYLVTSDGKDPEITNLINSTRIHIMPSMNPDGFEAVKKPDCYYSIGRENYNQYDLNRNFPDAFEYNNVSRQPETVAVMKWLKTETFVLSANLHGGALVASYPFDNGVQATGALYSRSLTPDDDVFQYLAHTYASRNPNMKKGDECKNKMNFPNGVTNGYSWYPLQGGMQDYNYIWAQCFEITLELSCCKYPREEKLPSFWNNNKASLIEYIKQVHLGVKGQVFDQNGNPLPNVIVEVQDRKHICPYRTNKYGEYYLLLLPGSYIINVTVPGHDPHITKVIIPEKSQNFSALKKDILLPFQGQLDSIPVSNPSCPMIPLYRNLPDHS
# Description: as §6, §7
# [2] = system: MDCK cells expressing CPM; assay: Live imaging of CPM activity in MDCK cells; format: cell-based
# Description: Live imaging of the carboxypeptidase activity in living cells was performed using HMRef-tSoul-AR synthesized above. […] Since it has been reported that CPM is expressed as an active form on a cell membrane unlike CPB, addition of trypsin or the like is unnecessary.
# Here, FIGS. 6(a) and 6(b) illustrate fluorescence images of the MDCK cells containing 10 μM HMRef-tSoul-AR in HBSS in the presence (a) or absence (b) of 10 μM MGTA. Ex/Em=488/500-550 nm laser output 5%, PMT 600 V. 10 μM Hoechst 33342 was co-incubated for focal plane correction. For imaging of a Hoechst signal, Ex/Em=405/430-460 nm. Laser output 3%, PMT 1000 V, SP8.
# Here, FIG. 7 illustrates results of UPLC analysis of a medium of the MDCK cells incubated with 20 μM HMRef-tSoul-AR in the presence or absence of 10 μM MGTA. The MDCK cells were incubated with 20 μM HMRef-tSoul-AR in HBSS at 37° C. for 20 hours in the presence or absence of 10 μM MGTA. Elution was performed with a linear gradient of C/D=95/5 to 5/95 in 4 minutes and detected at 254 nm.
# [3] = system: basic carboxypeptidase activity in breast cancer tissue; assay: Fluorescence imaging of clinical specimens derived from breast cancer patients; set-up: species or system human
# Description: Four specimens (IDC: invasive ductal carcinoma, 3 cases; DCIS: ductal carcinoma in situ, 1 case) derived from breast cancer patients were subjected to fluorescence imaging by applying HMRef-tSoul-AR to a tumor site and a normal site by the following procedure (FIG. 10).
# HMRef-tSoul-AR was dissolved in PBS so as to have a final concentration of 50 μM (containing 1% DMSO), and applied to clinical specimens from breast cancer patients in the presence and absence of 100 μM MGTA. A fluorescence image was captured on Maestro in vivo imaging system (PerkinElmer, Inc., MA, USA), a 455 nm (435-480 nm) band pass filter was used as an excitation light filter, and a 490 nm long pass filter was used as a fluorescence filter.
# When an increase was observed, in order to examine whether or not the increase was derived from basic carboxypeptidase activity, a group to which the inhibitor MGTA was added was also examined at the same time.
# [4] = CPM 5 ng, 37° C., PBS pH 7.4, 20 μL, apparent
# Chain of PSMA (Q04609 whole entry): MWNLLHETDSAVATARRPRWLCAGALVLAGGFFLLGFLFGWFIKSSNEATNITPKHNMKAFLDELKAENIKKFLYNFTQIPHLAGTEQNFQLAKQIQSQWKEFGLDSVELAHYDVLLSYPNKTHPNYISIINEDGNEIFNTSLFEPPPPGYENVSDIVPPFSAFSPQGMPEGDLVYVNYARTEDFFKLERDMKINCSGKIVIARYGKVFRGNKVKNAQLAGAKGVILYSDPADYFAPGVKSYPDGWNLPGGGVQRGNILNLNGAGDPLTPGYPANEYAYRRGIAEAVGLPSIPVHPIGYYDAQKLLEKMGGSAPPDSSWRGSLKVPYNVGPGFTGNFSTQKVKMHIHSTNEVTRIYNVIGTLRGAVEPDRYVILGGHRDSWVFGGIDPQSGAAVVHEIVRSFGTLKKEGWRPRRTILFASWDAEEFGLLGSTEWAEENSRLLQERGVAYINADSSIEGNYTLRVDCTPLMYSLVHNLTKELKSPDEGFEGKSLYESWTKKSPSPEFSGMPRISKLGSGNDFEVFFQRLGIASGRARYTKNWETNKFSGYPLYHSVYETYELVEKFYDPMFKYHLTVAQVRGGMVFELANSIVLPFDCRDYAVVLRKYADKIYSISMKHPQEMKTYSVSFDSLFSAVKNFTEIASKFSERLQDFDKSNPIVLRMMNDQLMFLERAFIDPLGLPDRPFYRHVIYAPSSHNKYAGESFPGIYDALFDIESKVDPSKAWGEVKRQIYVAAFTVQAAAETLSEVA
compound,measurement,setting,value
CCOP(=O)(N[C@@H](C)C(=O)N[C@@H](Cc1ccccc1)C(=O)O)Oc1ccc2c(C)cc(=O)oc2c1 (stereo partly shown) [Compound A],fluorescence change on incubation with CPA,"carboxypeptidase A (CPA); 10 μM probe in PBS(-), 5 ng CPA activated by 1.5 μg trypsin, Ex/Em=355/460 nm",increased
same,fluorescence change in the absence of enzyme (non-enzymatic degradation),[1],gradually increased even slightly
same,fluorescence change with only trypsin added,trypsin,a remarkable increase in fluorescence was not observed
Cc1cc(=O)oc2cc(OP(=O)(N[C@@H](C)C(=O)N[C@@H](CCCNC(=N)N)C(=O)O)C(C)(C)C)ccc12 (stereo partly shown) [Compound C],fluorescence change on incubation with CPB,"carboxypeptidase B (CPB); 37° C., 5 ng CPB",served as a substrate for CPB and showed the increase in fluorescence
same,fluorescence change in the absence of enzyme (non-enzymatic degradation),[1],no increase in fluorescence was observed
Cc1cc(=O)oc2cc(OP(=O)(N[C@@H](C)C(=O)N[C@@H](CCC(=O)O)C(=O)O)C(C)(C)C)ccc12 (stereo partly shown) [Compound 4MU-tSoul-AE],fluorescence change on incubation with PSMA,PSMA,the increase in fluorescence was not observed
Cc1cc(=O)oc2cc(OP(=O)(NCC(=O)N[C@@H](CCC(=O)O)C(=O)O)C(C)(C)C)ccc12 (stereo partly shown) [Compound 4MU-tSoul-GE],fluorescence change on incubation with PSMA,PSMA,the increase in fluorescence was observed
"O=C(O)C[C@H](Cc1ccccc1)C(=O)O [(S)-benzylsuccinic acid, reference compound]",effect of inhibitor on the increase in fluorescence of Compound A with CPA,"carboxypeptidase A (CPA); 100 μM inhibitor, 10 μM Compound A, 5 ng CPA",suppressed
C[C@H](NP(=O)(Oc1ccc2c(c1)Oc1cc(NCC(F)(F)F)ccc1C21OCc2ccccc21)C(C)(C)C)C(=O)N[C@@H](CCCNC(=N)N)C(=O)O (stereo partly shown) [HMRef-tSoul-AR],Km,CPB,50 µM
same,Vmax,CPB,1.2e-08 M/s
same,kcat,CPB,1.7 s⁻¹
same,substrate recognition by CPM,carboxypeptidase M (CPM),served as a substrate
same,Km,carboxypeptidase M (CPM); [4],61 µM
same,Vmax,carboxypeptidase M (CPM); [4],4e-08 M/s
same,kcat,carboxypeptidase M (CPM); [4],1.0 s⁻¹
same,fluorescence from MDCK cells over time,"[2]; 10 μM probe in HBSS, Ex/Em=488/500-550 nm",an increase in fluorescence over time from the MDCK cells was observed
same,generation of HMRef in external liquid of MDCK cells (UPLC),"[2]; 20 μM probe, HBSS, 37° C., 20 hours",HMRef was certainly generated
same,fluorescence from tumor tissue as compared with normal tissue,"[3]; 50 μM probe in PBS (1% DMSO), four breast cancer specimens",remarkable increase in fluorescence
same,fluorescence increase by reaction with CPB,"carboxypeptidase B (CPB); 1 μM probe in PBS(-), 30 μg CPB, 25° C., excitation 498 nm",3320 times
same,time stable in the absence of enzyme,"[1]; 1 μM probe, buffer pH 7.4, 25° C., absorption change",at least 1 hour
"NC(N)=NCCSCC(CS)C(=O)O (stereo not shown) [MGTA, reference compound]",effect of inhibitor on the increase in fluorescence of HMRef-tSoul-AR in MDCK cells,"[2]; 10 μM inhibitor, 10 μM HMRef-tSoul-AR in HBSS",completely suppressed
same,effect of inhibitor on the increase in fluorescence of HMRef-tSoul-AR in breast cancer specimens,"[3]; 100 μM inhibitor, 50 μM HMRef-tSoul-AR",suppressed
same,effect of inhibitor on the increase in fluorescence of Compound B with CPB,"carboxypeptidase B (CPB); 100 μM inhibitor, 10 μM Compound B, 5 ng CPB, 37° C.",suppressed
CCOP(=O)(N[C@@H](C)C(=O)N[C@@H](CCCNC(=N)N)C(=O)O)Oc1ccc2c(C)cc(=O)oc2c1 (stereo partly shown) [Compound B],fluorescence change on incubation with CPB,"carboxypeptidase B (CPB); 37° C., 5 ng CPB",increased
same,fluorescence change in the absence of enzyme (non-enzymatic degradation),[1],gradually increased even slightly
